These results are taken from ChEMBL document CHEMBL1255382, “Genetic mapping of targets mediating differential chemical phenotypes in Plasmodium falciparum” (Nat Chem Biol, 2009).

Counter-ions that a name gives are not always drawn.

The subject of assay [1] is Plasmodium falciparum. In words: microbe, parasite or virus in culture. Type of assay: functional, organism-based, W2. Conditions: for IC50: Plasmodium falciparum, W2, 72 h.
Description: Antiplasmodial activity against Plasmodium falciparum W2 after 72 hrs by SYBR green assay
Assay [2] deals with Plasmodium falciparum. In words: microbe, parasite or virus in culture. The following applies: Dd2, 72 h.
Description: Antiplasmodial activity against Plasmodium falciparum Dd2 after 72 hrs by SYBR green assay
The subject of assay [3] is Plasmodium falciparum. In words: microbe, parasite or virus in culture. Type of assay: functional, organism-based. Conditions: 7G8, 72 h.
Description: Antiplasmodial activity against Plasmodium falciparum 7G8 after 72 hrs by SYBR green assay
Assay [4] deals with Plasmodium falciparum. The assay is described as follows: microbe, parasite or virus in culture. The following applies: D10, 72 h.
Description: Antiplasmodial activity against Plasmodium falciparum D10 after 72 hrs by SYBR green assay
Assay [5] relates to Plasmodium falciparum. The assay is described as follows: microbe, parasite or virus in culture. Type of assay: functional, organism-based. The following applies: 3D7, 72 h.
Description: Antiplasmodial activity against Plasmodium falciparum 3D7 after 72 hrs by SYBR green assay
For assay [6], the system named is Plasmodium falciparum. In words: microbe, parasite or virus in culture. Conditions: HB3, 72 h.
Description: Antiplasmodial activity against Plasmodium falciparum HB3 after 72 hrs by SYBR green assay
Assay [7] relates to Plasmodium falciparum. In words: microbe, parasite or virus in culture. Type of assay: functional, organism-based. The following applies: GB4, 72 h.
Description: Antiplasmodial activity against Plasmodium falciparum GB4 after 72 hrs by SYBR green assay
For assay [8], the system named is Plasmodium falciparum. In words: microbe, parasite or virus in culture. The following applies: Dd2, 72 h. The source holds these as a separate data set.
Description: Antiplasmodial activity against transgenic Plasmodium falciparum Dd2 pDT harboring polymorphic DHFR after 72 hrs by SYBR green assay
Assay [9] deals with Plasmodium falciparum. In words: microbe, parasite or virus in culture. Conditions: D2, 72 h.
Description: Antiplasmodial activity against Plasmodium falciparum D2 after 72 hrs by SYBR green assay
In assay [10] the test system is Plasmodium falciparum. The assay is described as follows: microbe, parasite or virus in culture. The following applies: HB3, 72 h. This is another data set of the same source.
Description: Antiplasmodial activity against Plasmodium falciparum HB3 harboring polymorphic DHFR after 72 hrs by SYBR green assay
In assay [11] the test system is Plasmodium falciparum. In words: microbe, parasite or virus in culture. The following applies: XG10, 72 h.
Description: Antiplasmodial activity against Plasmodium falciparum XG10 after 72 hrs by SYBR green assay
In assay [12] the test system is Plasmodium falciparum. The assay is described as follows: microbe, parasite or virus in culture. Conditions: KB8, 72 h.
Description: Antiplasmodial activity against Plasmodium falciparum KB8 after 72 hrs by SYBR green assay
Assay [13] has as its system Plasmodium falciparum. The assay is described as follows: microbe, parasite or virus in culture. Conditions: AL2, 72 h.
Description: Antiplasmodial activity against Plasmodium falciparum AL2 after 72 hrs by SYBR green assay
The test system of assay [14] is Plasmodium falciparum. In words: microbe, parasite or virus in culture. The following applies: HB3 pDT, 72 h.
Description: Antiplasmodial activity against transgenic Plasmodium falciparum HB3 pDT harboring polymorphic DHFR after 72 hrs by SYBR green assay
Assay [15] relates to Plasmodium falciparum. The assay is described as follows: microbe, parasite or virus in culture. Conditions: KH7, 72 h.
Description: Antiplasmodial activity against Plasmodium falciparum KH7 after 72 hrs by SYBR green assay
Assay [16] has as its system Plasmodium falciparum. The assay is described as follows: microbe, parasite or virus in culture. Conditions: XE7, 72 h.
Description: Antiplasmodial activity against Plasmodium falciparum XE7 after 72 hrs by SYBR green assay
Assay [17] concerns Plasmodium falciparum. In words: microbe, parasite or virus in culture. The following applies: KA6, 72 h.
Description: Antiplasmodial activity against Plasmodium falciparum KA6 after 72 hrs by SYBR green assay
Assay [18] concerns Plasmodium falciparum. The assay is described as follows: microbe, parasite or virus in culture. The following applies: 7G8, 72 h.
Description: Antiplasmodial activity against Plasmodium falciparum 7G8 harboring polymorphic DHFR after 72 hrs by SYBR green assay
Assay [19] deals with Plasmodium falciparum. In words: microbe, parasite or virus in culture. Conditions: TF1, 72 h.
Description: Antiplasmodial activity against Plasmodium falciparum TF1 after 72 hrs by SYBR green assay
Assay [20] relates to Plasmodium falciparum. The assay is described as follows: microbe, parasite or virus in culture. The following applies: WC4, 72 h.
Description: Antiplasmodial activity against Plasmodium falciparum WC4 after 72 hrs by SYBR green assay
The subject of assay [21] is Plasmodium falciparum. In words: microbe, parasite or virus in culture. Conditions: NIC, 72 h.
Description: Antiplasmodial activity against Plasmodium falciparum NIC after 72 hrs by SYBR green assay
Assay [22] has as its system Plasmodium falciparum. In words: microbe, parasite or virus in culture. The following applies: Dd2, 72 h. This is another data set of the same source.
Description: Antiplasmodial activity against Plasmodium falciparum Dd2 harboring polymorphic DHFR after 72 hrs by SYBR green assay
Assay [23] deals with Plasmodium falciparum. In words: microbe, parasite or virus in culture. Conditions: XD8, 72 h.
Description: Antiplasmodial activity against Plasmodium falciparum XD8 after 72 hrs by SYBR green assay
In assay [24] the test system is Plasmodium falciparum. The assay is described as follows: microbe, parasite or virus in culture. Conditions: LA10, 72 h.
Description: Antiplasmodial activity against Plasmodium falciparum LA10 after 72 hrs by SYBR green assay
Assay [25] deals with Plasmodium falciparum. The assay is described as follows: microbe, parasite or virus in culture. The following applies: GB4, 72 h.
Description: Antiplasmodial activity against Plasmodium falciparum GB4 harboring polymorphic DHFR after 72 hrs by SYBR green assay
For assay [26], the system named is Plasmodium falciparum. In words: microbe, parasite or virus in culture. Conditions: DAN, 72 h.
Description: Antiplasmodial activity against Plasmodium falciparum DAN after 72 hrs by SYBR green assay
The subject of assay [27] is Plasmodium falciparum. In words: microbe, parasite or virus in culture. The following applies: WF12, 72 h.
Description: Antiplasmodial activity against Plasmodium falciparum WF12 after 72 hrs by SYBR green assay
Assay [28] relates to Plasmodium falciparum. In words: microbe, parasite or virus in culture. The following applies: XB3, 72 h.
Description: Antiplasmodial activity against Plasmodium falciparum XB3 after 72 hrs by SYBR green assay
The subject of assay [29] is Plasmodium falciparum. The assay is described as follows: microbe, parasite or virus in culture. The following applies: JON, 72 h.
Description: Antiplasmodial activity against Plasmodium falciparum JON after 72 hrs by SYBR green assay
For assay [30], the system named is Plasmodium falciparum. In words: microbe, parasite or virus in culture. The following applies: JF11, 72 h.
Description: Antiplasmodial activity against Plasmodium falciparum JF11 after 72 hrs by SYBR green assay
Assay [31] concerns Plasmodium falciparum. In words: microbe, parasite or virus in culture. The following applies: LC12, 72 h.
Description: Antiplasmodial activity against Plasmodium falciparum LC12 after 72 hrs by SYBR green assay
Assay [32] relates to Plasmodium falciparum. In words: microbe, parasite or virus in culture. Conditions: D10, 72 h. The source holds these as a separate data set.
Description: Antiplasmodial activity against Plasmodium falciparum D10 harboring polymorphic DHFR after 72 hrs by SYBR green assay
For assay [33], the system named is Plasmodium falciparum.
Description: (§1) Antiplasmodial activity against Plasmodium falciparum XF12 after 72 hrs by SYBR green assay
Assay [34] relates to Plasmodium falciparum. In words: microbe, parasite or virus in culture. The following applies: KC5, 72 h.
Description: Antiplasmodial activity against Plasmodium falciparum KC5 after 72 hrs by SYBR green assay
The test system of assay [35] is Plasmodium falciparum. The assay is described as follows: microbe, parasite or virus in culture. Conditions: XF12, 72 h.
Description: as §1
Assay [36] has as its system Plasmodium falciparum. The assay is described as follows: microbe, parasite or virus in culture. Conditions: AUD, 72 h.
Description: Antiplasmodial activity against Plasmodium falciparum AUD after 72 hrs by SYBR green assay
Assay [37] deals with Plasmodium falciparum. The assay is described as follows: microbe, parasite or virus in culture. Conditions: JC9, 72 h.
Description: Antiplasmodial activity against Plasmodium falciparum JC9 after 72 hrs by SYBR green assay
Assay [38] has as its system Plasmodium falciparum. In words: microbe, parasite or virus in culture. Conditions: WE2, 72 h.
Description: Antiplasmodial activity against Plasmodium falciparum WE2 after 72 hrs by SYBR green assay
The test system of assay [39] is Plasmodium falciparum. The assay is described as follows: microbe, parasite or virus in culture. The following applies: JC3, 72 h.
Description: Antiplasmodial activity against Plasmodium falciparum JC3 after 72 hrs by SYBR green assay
Assay [40] has as its system Plasmodium falciparum. In words: microbe, parasite or virus in culture. The following applies: JB8, 72 h.
Description: Antiplasmodial activity against Plasmodium falciparum JB8 after 72 hrs by SYBR green assay
Assay [41] has as its system Plasmodium falciparum. The assay is described as follows: microbe, parasite or virus in culture. Conditions: W2, 72 h.
Description: Antiplasmodial activity against Plasmodium falciparum W2 harboring polymorphic DHFR after 72 hrs by SYBR green assay
The test system of assay [42] is Plasmodium falciparum. In words: microbe, parasite or virus in culture. The following applies: NF10, 72 h.
Description: Antiplasmodial activity against Plasmodium falciparum NF10 after 72 hrs by SYBR green assay
For assay [43], the system named is Plasmodium falciparum. The assay is described as follows: microbe, parasite or virus in culture. Conditions: JB12, 72 h.
Description: Antiplasmodial activity against Plasmodium falciparum JB12 after 72 hrs by SYBR green assay
The test system of assay [44] is Plasmodium falciparum. The assay is described as follows: microbe, parasite or virus in culture. Conditions: KC2, 72 h.
Description: Antiplasmodial activity against Plasmodium falciparum KC2 after 72 hrs by SYBR green assay
Assay [45] deals with Plasmodium falciparum. The assay is described as follows: microbe, parasite or virus in culture. Conditions: JH6, 72 h.
Description: Antiplasmodial activity against Plasmodium falciparum JH6 after 72 hrs by SYBR green assay
The subject of assay [46] is Plasmodium falciparum. The assay is described as follows: microbe, parasite or virus in culture. The following applies: DEV, 72 h.
Description: Antiplasmodial activity against Plasmodium falciparum DEV after 72 hrs by SYBR green assay
In assay [47] the test system is Plasmodium falciparum. The assay is described as follows: microbe, parasite or virus in culture. The following applies: QF5, 72 h.
Description: Antiplasmodial activity against Plasmodium falciparum QF5 after 72 hrs by SYBR green assay
Assay [48] relates to Plasmodium falciparum. In words: Antiplasmodial activity against Plasmodium falciparum CDY harboring modified mdr1 protein after 72 hrs by SYBR green assay in presence of 0.8 uM P-gp inhibitor verapamil. Type of assay: functional, organism-based. Conditions: MDR1, 72 h.

`CCCNC[C@H](O)COc1ccccc1C(=O)CCc1ccccc1` gave an IC50 in assay [1] of 0.28 µM.

On to `CCN(CC)CCNC(=O)c1cc(Cl)c(N)cc1OC.Cl`, for which, in assay [1], the pIC25 stood at 4.9.

Regarding `Nc1ccc(-c2nc3ccc(-c4nc5ccc(N)cc5[nH]4)cc3[nH]2)cc1`, the IC50 turned out to be 1 µM in [2]; 0.52 µM in [3]; 0.74 µM in assay [4]; 0.28 µM in [5]; 0.22 µM in [1]; 0.83 µM in [6]. Moreover, the IC50 in assay [7] was determined as 0.74 µM.

As for `Nc1nc(N)c2nc(-c3ccccc3)c(N)nc2n1`, the IC50 in assay [8] came to 4 µM; in assay [9] it was 22.2 µM; in assay [10] it was 176 µM; in assay [11], 8.13 µM; in [12] it was 56.3 µM; in [3], 51.7 µM. The IC50 came out at 81.8 µM in assay [13]; 95 µM in [14]; 15 µM in [15]; 18.1 µM in [16]; 5.19 µM in assay [17]; 154 µM in assay [18]. In addition, the IC50 in [19] came out at 8.82 µM; in assay [20], 52.5 µM; in assay [21] it was 11.2 µM; in assay [22] it was 141 µM; in assay [23] it was 59.8 µM; in assay [24] it was 5.59 µM. Further, the IC50 worked out at 5.3 µM in assay [25]; 69.5 µM in [26]; 5.83 µM in assay [27]; 57 µM in assay [28]; 3.29 µM in assay [29]; 5.11 µM in assay [30]. For the same molecule, the IC50 in assay [31] is 50.1 µM; in [32], 70 µM; in assay [33], 17.1 µM; in assay [34] it was 73.5 µM; in assay [35], 17.1 µM; in assay [36] it was 54.2 µM. Further, the IC50 is 43.7 µM in [37]; 44.6 µM in [38]; 4.26 µM in assay [39]; 49.4 µM in assay [40]; 95 µM in [41]; 75.1 µM in [42]. Moreover, the IC50 was 65.1 µM in assay [43]; 60.4 µM in [44]; 64.8 µM in [45]; 60.5 µM in assay [46]; 3.54 µM in [47].

As for `CN1C[C@H](C(=O)N[C@]2(C)O[C@@]3(O)[C@@H]4CCCN4C(=O)[C@H](Cc4ccccc4)N3C2=O)C[C@@H]2c3cccc4[nH]cc(c34)C[C@H]21` (stereo in doubt; 1) [DIHYDROERGOTAMINE MESYLATE], the IC50 in [48] was determined as 0.022 µM.

Regarding `CC[C@@]1(O)C(=O)OCc2c1cc1n(c2=O)Cc2cc3ccccc3nc2-1` [CAMPTOTHECIN], the IC50 in assay [2] came out at 1.32 µM; in assay [3] it was 1.41 µM; in assay [4], 1.12 µM; in [5], 0.83 µM; in assay [1] it was 0.56 µM; in assay [6], 0.89 µM. The molecule further registered an IC50 in [7] of 0.89 µM.

`Cc1cc(N)c2ccccc2[n+]1CCCCCCCCCC[n+]1c(C)cc(N)c2ccccc21` [DEQUALINIUM CHLORIDE]: the IC50 in assay [4] and in assay [6] was 0.1 µM each time.

Turning to `COc1cc(Cc2cnc(N)nc2N)cc(OC)c1OC` [TRIMETHOPRIM], the IC50 stood at 158 µM in [10]; 117 µM in [14]; 194 µM in [18]; 169 µM in [22]; 4.1 µM in [25].

Broadly, the IC50 is the concentration that gives 50% inhibition.
